From ChEMBL document CHEMBL1201862, “PubChem BioAssay data set” (2004)
Calls of active or inactive are those of the source. Rule as the data show it, for most assays here: active = IC50 of 10 µM or less and inactive = more.

Experiments:
[1] = target: T1, Apoptotic protease-activating factor 1 (Homo sapiens, UniProt O14727); experiment: SAR analysis of small molecule inhibitors of Apaf-1 in a Fluorescent assay.; assay type: functional; conditions: read-out: IC50_Mean
T1 sequence (O14727 whole entry): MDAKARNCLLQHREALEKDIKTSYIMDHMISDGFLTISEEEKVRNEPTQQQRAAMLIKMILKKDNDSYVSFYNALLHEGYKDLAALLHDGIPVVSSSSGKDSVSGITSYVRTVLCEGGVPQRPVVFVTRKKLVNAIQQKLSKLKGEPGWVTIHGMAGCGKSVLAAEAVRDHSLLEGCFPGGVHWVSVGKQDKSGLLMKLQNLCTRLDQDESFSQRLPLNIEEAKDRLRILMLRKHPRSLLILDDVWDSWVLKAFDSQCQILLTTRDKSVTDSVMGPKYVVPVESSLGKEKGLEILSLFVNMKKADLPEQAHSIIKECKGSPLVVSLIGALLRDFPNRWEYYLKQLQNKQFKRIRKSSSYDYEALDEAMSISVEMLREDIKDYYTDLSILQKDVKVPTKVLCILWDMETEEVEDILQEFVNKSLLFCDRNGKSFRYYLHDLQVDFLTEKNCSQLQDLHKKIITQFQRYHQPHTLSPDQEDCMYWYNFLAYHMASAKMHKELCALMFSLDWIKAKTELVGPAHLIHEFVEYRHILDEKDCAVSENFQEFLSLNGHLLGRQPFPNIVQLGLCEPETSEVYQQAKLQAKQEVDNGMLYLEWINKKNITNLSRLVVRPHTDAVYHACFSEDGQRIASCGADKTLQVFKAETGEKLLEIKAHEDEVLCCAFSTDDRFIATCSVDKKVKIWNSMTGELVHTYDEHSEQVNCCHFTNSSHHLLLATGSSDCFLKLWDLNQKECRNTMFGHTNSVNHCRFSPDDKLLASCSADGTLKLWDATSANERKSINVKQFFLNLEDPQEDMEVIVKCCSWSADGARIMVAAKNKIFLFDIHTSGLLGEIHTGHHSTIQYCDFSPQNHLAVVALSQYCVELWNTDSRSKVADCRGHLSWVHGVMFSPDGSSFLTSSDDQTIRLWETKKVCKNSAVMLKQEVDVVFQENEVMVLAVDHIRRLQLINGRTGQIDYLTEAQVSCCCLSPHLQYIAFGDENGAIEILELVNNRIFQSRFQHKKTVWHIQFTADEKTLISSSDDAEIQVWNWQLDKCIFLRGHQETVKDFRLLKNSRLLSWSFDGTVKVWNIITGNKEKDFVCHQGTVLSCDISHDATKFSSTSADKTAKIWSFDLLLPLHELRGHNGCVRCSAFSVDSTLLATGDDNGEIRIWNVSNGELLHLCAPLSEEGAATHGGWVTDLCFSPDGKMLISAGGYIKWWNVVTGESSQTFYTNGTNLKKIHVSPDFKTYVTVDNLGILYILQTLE

[2] = target: T2, Neuropeptides B/W receptor type 1 (Homo sapiens, UniProt P48145); experiment: GPR7 antagonist potency, late-stage follow-up, cell-based, fluorescence, dose response, set 5 (AID 588566); assay type: functional
T2 sequence (P48145 whole entry): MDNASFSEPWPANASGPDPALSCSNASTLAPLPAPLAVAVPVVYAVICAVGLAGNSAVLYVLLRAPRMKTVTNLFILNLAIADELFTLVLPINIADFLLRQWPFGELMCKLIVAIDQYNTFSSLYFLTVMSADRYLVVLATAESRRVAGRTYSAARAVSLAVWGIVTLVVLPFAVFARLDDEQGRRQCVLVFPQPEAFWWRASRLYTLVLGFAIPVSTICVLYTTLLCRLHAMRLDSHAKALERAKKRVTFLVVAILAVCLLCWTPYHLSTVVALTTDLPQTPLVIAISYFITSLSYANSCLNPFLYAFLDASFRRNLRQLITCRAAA

[3] = target: T3, Melanin-concentrating hormone receptor 1 (Homo sapiens, UniProt Q99705); experiment: Late-stage fluorescence-based counterscreen for antagonists of the G-protein coupled receptor 7 (GPR7): cell-based dose response assay to identify antagonists of the melanin-concentrating hormone receptor 1 (MCHR1) Set 5.; assay type: functional
[4] = target: Glycogen synthase kinase-3 beta (Homo sapiens, UniProt P49841); experiment: GSK3beta kinase inhibitors, dose response, biochemical, microfluidics, dry powder samples, set 2 (AID 623989); assay type: functional
[5] = target: Glycogen synthase kinase-3 alpha (Homo sapiens, UniProt P49840); experiment: human GSK3 alpha kinase inhibition, dose response, selectivity assay for GSK3beta inhibitor project, biochemical, microfluidics, dry powder samples, set 2 (AID 623978); assay type: functional
[6] = target: T4, DNA dC->dU-editing enzyme APOBEC-3A (Homo sapiens, UniProt P31941); experiment: SAR analysis of small molecule inhibitors of APOBEC3A DNA Deaminase via a fluorescence-based single-stranded DNA deaminase assay - Set 2.; assay type: functional; conditions: read-out: IC50_Mean
[7] = target: T5, DNA dC->dU-editing enzyme APOBEC-3G (Homo sapiens, UniProt Q9HC16); experiment: SAR analysis of small molecule inhibitors of APOBEC3G DNA Deaminase via a fluorescence-based single-stranded DNA deaminase assay - Set 2.; assay type: functional; conditions: read-out: IC50_Mean
[8] = target: T5, DNA dC->dU-editing enzyme APOBEC-3G; experiment: APOBEC3G deaminase inhibitors, SAR follow-up, biochemical, fluorescence, single-stranded DNA substrate (AID 602136); assay type: functional; conditions: read-out: IC50_Mean
[9] = target: T4, DNA dC->dU-editing enzyme APOBEC-3A; experiment: SAR analysis of small molecule inhibitors of APOBEC3A DNA Deaminase via a fluorescence-based single-stranded DNA deaminase assay.; assay type: functional; conditions: read-out: IC50_Mean
[10] = target: T3, Melanin-concentrating hormone receptor 1; experiment: Late-stage fluorescence-based counterscreen for antagonists of the G-protein coupled receptor 7 (GPR7): cell-based dose response assay to identify antagonists of the melanin-concentrating hormone receptor 1 (MCHR1) Set 6.; assay type: functional
[11] = target: T2, Neuropeptides B/W receptor type 1; experiment: GPR7 antagonist potency, late-stage follow-up, cell-based, fluorescence, dose response, set 6 (AID 588583); assay type: functional

T4 sequence (P31941 whole entry): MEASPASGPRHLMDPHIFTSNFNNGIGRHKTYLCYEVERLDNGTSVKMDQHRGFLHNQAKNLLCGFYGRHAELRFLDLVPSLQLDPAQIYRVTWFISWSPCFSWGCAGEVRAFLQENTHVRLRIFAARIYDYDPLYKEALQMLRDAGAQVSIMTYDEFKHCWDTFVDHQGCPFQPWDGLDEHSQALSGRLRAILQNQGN
T5 sequence (Q9HC16 whole entry): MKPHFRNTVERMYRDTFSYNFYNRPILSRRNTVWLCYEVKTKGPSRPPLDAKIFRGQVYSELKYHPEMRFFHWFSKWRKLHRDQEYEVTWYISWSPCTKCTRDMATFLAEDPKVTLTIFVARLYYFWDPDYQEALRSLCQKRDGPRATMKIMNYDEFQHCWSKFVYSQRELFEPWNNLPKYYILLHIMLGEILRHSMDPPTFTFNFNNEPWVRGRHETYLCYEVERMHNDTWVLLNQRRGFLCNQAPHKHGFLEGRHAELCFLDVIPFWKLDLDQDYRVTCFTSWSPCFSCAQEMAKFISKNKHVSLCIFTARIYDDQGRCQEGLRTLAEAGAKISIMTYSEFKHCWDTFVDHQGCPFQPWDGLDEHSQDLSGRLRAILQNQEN
T3 sequence (Q99705 whole entry): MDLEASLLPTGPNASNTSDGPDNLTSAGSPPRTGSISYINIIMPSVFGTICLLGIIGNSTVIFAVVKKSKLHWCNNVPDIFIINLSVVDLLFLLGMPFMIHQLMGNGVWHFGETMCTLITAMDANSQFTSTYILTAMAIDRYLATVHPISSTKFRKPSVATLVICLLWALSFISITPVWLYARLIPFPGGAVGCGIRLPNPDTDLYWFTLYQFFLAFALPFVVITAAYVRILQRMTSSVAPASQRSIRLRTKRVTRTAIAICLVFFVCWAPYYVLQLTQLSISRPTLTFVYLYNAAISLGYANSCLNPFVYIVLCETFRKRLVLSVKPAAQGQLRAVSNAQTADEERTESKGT
Chain of Glycogen synthase kinase-3 alpha (P49840 whole entry): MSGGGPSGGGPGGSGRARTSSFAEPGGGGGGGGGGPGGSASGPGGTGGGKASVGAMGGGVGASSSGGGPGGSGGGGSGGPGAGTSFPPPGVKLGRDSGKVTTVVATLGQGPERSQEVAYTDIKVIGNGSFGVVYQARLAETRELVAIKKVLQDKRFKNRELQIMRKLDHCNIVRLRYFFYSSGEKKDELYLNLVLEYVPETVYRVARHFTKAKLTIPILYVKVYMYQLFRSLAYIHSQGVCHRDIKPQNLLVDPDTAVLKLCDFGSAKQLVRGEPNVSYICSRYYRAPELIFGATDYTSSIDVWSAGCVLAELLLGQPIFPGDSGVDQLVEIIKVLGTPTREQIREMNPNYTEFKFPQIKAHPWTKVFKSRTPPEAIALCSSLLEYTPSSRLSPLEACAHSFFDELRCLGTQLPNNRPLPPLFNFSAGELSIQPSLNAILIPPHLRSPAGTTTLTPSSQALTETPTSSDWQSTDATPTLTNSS
Chain of Glycogen synthase kinase-3 beta (P49841 whole entry): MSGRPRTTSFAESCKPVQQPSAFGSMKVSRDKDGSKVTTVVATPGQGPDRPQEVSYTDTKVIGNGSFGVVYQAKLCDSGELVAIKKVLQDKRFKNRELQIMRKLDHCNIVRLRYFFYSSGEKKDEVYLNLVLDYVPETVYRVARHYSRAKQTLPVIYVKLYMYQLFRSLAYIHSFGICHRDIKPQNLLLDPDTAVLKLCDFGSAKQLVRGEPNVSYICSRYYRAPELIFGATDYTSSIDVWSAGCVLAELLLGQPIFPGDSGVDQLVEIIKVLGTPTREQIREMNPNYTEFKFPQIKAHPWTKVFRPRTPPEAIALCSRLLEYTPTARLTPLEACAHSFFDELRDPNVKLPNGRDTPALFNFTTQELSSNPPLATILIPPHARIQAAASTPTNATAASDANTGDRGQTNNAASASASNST

Cc1ccc2c(c1)C(=O)c1nc3ccccc3c(=O)n1-2
IC50 [1]: > 100 µM (inactive)

COc1ccc(Oc2c(Cl)cnn(Cc3ccccc3OCc3ccccc3)c2=O)cc1
IC50 [2]: 1.21 µM (active) | IC50 [3]: 16.5 µM (inactive)

Fc1cccc(Nc2nc(-c3ccncc3)nc3ccccc23)c1
AC50 [4]: 0.894 µM (active) | AC50 [5]: 29.7 µM (active) | IC50 (cells): 44.3 µM (active)

CC1(C)Oc2ccc3ccc(=O)oc3c2C(C=NCCO)=C1O
IC50 [6]: 50.4 µM (inactive) | IC50 [7]: 2.34 µM (active) | IC50 [8]: 12.3 µM (inactive) | IC50 [9]: 28.8 µM (inactive)

N#CC(c1cccc(F)c1F)c1c(Cl)cnn(Cc2cccc3ccccc23)c1=O (configuration not stated)
IC50 [10]: 0.542 µM (active) | IC50 [11]: 0.542 µM (active)
